# Laboratory results as given in patent US20160251725A1, “METHOD FOR PREDICTING CLINICAL TOXICITY AND OUTCOME” (AGENCY FOR SCIENCE, TECHNOLOGY AND RESEARCH, priority 2013, published 2016).
# Test system: mRCC patients
# Experiment: Sunitinib toxicities in mRCC patients (CTCAE version 3.0), association with patient factors and genotypes
# Assay type: in vivo, human
# Method: Twelve patients in this study received a starting dose of 50 mg daily. Six patients started with 25 mg daily due to advanced age or patients' aversion to expected toxicities.
# Patient characteristics were also collected including age, gender, ethnicity, body weight and height, and Eastern Cooperative Oncology Group (ECOG) performance status. Memorial Sloan-Kettering Cancer Center (MSKCC) prognostic score was calculated for each patient with available data. All the collected data were de-identified by a third party before being used in statistical analysis. The follow-up period ended at the end of April, 2014.
# The toxicities analyzed included leucopenia, neutropenia, thrombocytopenia, diarrhea, hand-foot syndrome and early toxicity-necessitated treatment termination. […] Early toxicity-necessitated treatment termination was defined as interruption of the first or second treatment cycle consented by the patient and the physician based on recognition of intolerable or life-threatening toxicities without evidence of progressive disease and failure to resume treatment as far as the patient was followed. For patients experiencing any toxicity grade≧2, cycle interruptions were frequently required; in such cases, a resumed treatment with 25% dose reduction would be applied for safety and life quality considerations.
# Genotype associations with toxicity events or responsive tumor were first analyzed using univariate logistic regression. Genotypes generating P<0.20 were further analyzed using multivariate logistic regression including patient age, gender, baseline ECOG status and starting dose as covariates. Progression-free survival and overall survival were estimated by means of Kaplan-Meier method, while the associations of genotypes and patient characteristics with PFS and OS were analyzed using two-tailed log rank test. The effects of genotypes on the progression-free survival and overall survival were then evaluated using multivariate Cox regression model by including genotypes and patient characteristics with P<0.05 in univariate analysis. […] In all analyses, missing data were kept missing except for baseline ECOG status, which was replaced with the median value. As this was designed as a validation study of previously observed correlations rather than an exploratory evaluation, multiple testing correction was not done.
# [1] = ABCB1 2677 TT + AT + GT vs Other
# [2] = ABCB1 haplotype TTT/TTT vs Other
structure (smiles),measurement,setting,value
CCN(CC)CCNC(=O)c1c(C)[nH]c(/C=C2\C(=O)Nc3ccc(F)cc32)c1C [sunitinib],Decrease of the risk of diarrhea,ABCB1 1236 T allele,25 fold
same,Decrease of the risk of early toxicity-necessitated treatment termination,ABCB1 1236 T allele,10 fold
same,Decrease of the risk of neutropenia,ABCB1 1236 T allele,3 fold
same,Diarrhea prevalence,ABCB1 1236 T/C CC,7/9
same,Neutropenia prevalence,ABCB1 1236 T/C CC + CT,27/52
same,Toxicity-necessitated treatment termination prevalence,ABCB1 1236 T/C CC + CT,10/53
same,Neutropenia prevalence,ABCB1 1236 T/C TT,11/32
same,Toxicity-necessitated treatment termination prevalence,ABCB1 1236 T/C TT,2/30
same,Diarrhea prevalence,ABCB1 1236 T/C TT + CT,13/82
same,Diarrhea OR multivariate,ABCB1 1236 TT + CT vs CC,0.04
same,Diarrhea OR univariate,ABCB1 1236 TT + CT vs CC,0.1
same,Neutropenia OR multivariate,ABCB1 1236 TT vs CC + CT,0.3
same,Neutropenia OR univariate,ABCB1 1236 TT vs CC + CT,0.5
same,Toxicity-necessitated treatment termination OR multivariate,ABCB1 1236 TT vs CC + CT,0.1
same,Toxicity-necessitated treatment termination OR univariate,ABCB1 1236 TT vs CC + CT,0.3
same,Neutropenia prevalence,ABCB1 2677 G/TA Other,20/35
same,Neutropenia prevalence,ABCB1 2677 G/TA TT + AT + GT,20/53
same,Decrease of the risk of neutropenia,ABCB1 2677 T allele,3 fold
same,Neutropenia OR multivariate,[1],0.4
same,Neutropenia OR univariate,[1],0.5
same,Decrease of the risk of neutropenia,"ABCB1 3435, 1236, 2677 TTT haplotype",10 fold
same,Neutropenia prevalence,ABCB1 3435 C/T CC + CT,38/75
same,Neutropenia prevalence,ABCB1 3435 C/T TT,1/12
same,Decrease of the risk of diarrhea,ABCB1 3435 T allele,3 fold
same,Decrease of the risk of neutropenia,ABCB1 3435 T allele,10 fold
same,Diarrhea prevalence,ABCB1 3435 T/C CC,11/34
same,Diarrhea prevalence,ABCB1 3435 T/C TT + CT,9/60
same,Diarrhea OR multivariate,ABCB1 3435 TT + CT vs CC,0.3
same,Diarrhea OR univariate,ABCB1 3435 TT + CT vs CC,0.4
same,Neutropenia OR multivariate,ABCB1 3435 TT vs CC + CT,0.1
same,Neutropenia OR univariate,ABCB1 3435 TT vs CC + CT,0.1
same,Neutropenia prevalence,ABCB1 haplotype Other,38/79
same,Neutropenia prevalence,ABCB1 haplotype TTT/TTT,1/8
same,Neutropenia OR multivariate,[2],0.1
same,Neutropenia OR univariate,[2],0.2
same,Decrease of the risk of neutropenia,ABCG2 421 A allele,3 fold
same,Neutropenia OR multivariate,ABCG2 421 AA vs CC + AC,0.3
same,Neutropenia OR univariate,ABCG2 421 AA vs CC + AC,0.5
same,Neutropenia prevalence,ABCG2 421 C/A AA,16/44
same,Neutropenia prevalence,ABCG2 421 C/A CC + AC,23/42
same,Diarrhea OR univariate,Age,1.0
same,Leucopenia OR univariate,Age,1.0
same,Neutropenia OR univariate,Age,1.0
same,Toxicity-necessitated treatment termination OR univariate,Age,1.1
same,Diarrhea prevalence,Baseline ECOG 0,6/27
same,Leucopenia prevalence,Baseline ECOG 0,1/25
same,Neutropenia prevalence,Baseline ECOG 0,13/25
same,Toxicity-necessitated treatment termination prevalence,Baseline ECOG 0,2/26
same,Diarrhea prevalence,Baseline ECOG 1,9/50
same,Leucopenia prevalence,Baseline ECOG 1,9/44
same,Neutropenia prevalence,Baseline ECOG 1,22/46
same,Toxicity-necessitated treatment termination prevalence,Baseline ECOG 1,7/44
same,Diarrhea OR univariate,Baseline ECOG 1 vs 0,0.8
same,Leucopenia OR univariate,Baseline ECOG 1 vs 0,6.2
same,Neutropenia OR univariate,Baseline ECOG 1 vs 0,0.9
same,Toxicity-necessitated treatment termination OR univariate,Baseline ECOG 1 vs 0,2.3
same,Diarrhea prevalence,Baseline ECOG 2,4/12
same,Leucopenia prevalence,Baseline ECOG 2,1/12
same,Neutropenia prevalence,Baseline ECOG 2,5/12
same,Toxicity-necessitated treatment termination prevalence,Baseline ECOG 2,2/12
same,Diarrhea OR univariate,Baseline ECOG 2 vs 0,1.8
same,Leucopenia OR univariate,Baseline ECOG 2 vs 0,2.2
same,Neutropenia OR univariate,Baseline ECOG 2 vs 0,0.7
same,Toxicity-necessitated treatment termination OR univariate,Baseline ECOG 2 vs 0,2.4
same,Diarrhea prevalence,Baseline ECOG 3,1/6
same,Leucopenia prevalence,Baseline ECOG 3,0/4
same,Neutropenia prevalence,Baseline ECOG 3,0/5
same,Toxicity-necessitated treatment termination prevalence,Baseline ECOG 3,2/5
same,Diarrhea OR univariate,Baseline ECOG 3 vs 0,0.7
same,Toxicity-necessitated treatment termination OR univariate,Baseline ECOG 3 vs 0,8.0
same,Diarrhea OR univariate,Female vs Male,1.2
same,Leucopenia OR univariate,Female vs Male,3.3
same,Neutropenia OR univariate,Female vs Male,2.8
same,Toxicity-necessitated treatment termination OR univariate,Gender (printed on the Male row),0.9
same,Diarrhea prevalence,Gender Female,5/21
same,Leucopenia prevalence,Gender Female,5/20
same,Neutropenia prevalence,Gender Female,13/20
same,Toxicity-necessitated treatment termination prevalence,Gender Female,3/21
same,Diarrhea prevalence,Gender Male,15/74
same,Leucopenia prevalence,Gender Male,6/65
same,Neutropenia prevalence,Gender Male,27/68
same,Toxicity-necessitated treatment termination prevalence,Gender Male,10/66
same,Diarrhea prevalence,Starting dose 37.5 mg,15/78
same,Leucopenia prevalence,Starting dose 37.5 mg,10/70
same,Neutropenia prevalence,Starting dose 37.5 mg,32/72
same,Toxicity-necessitated treatment termination prevalence,Starting dose 37.5 mg,8/71
same,Diarrhea prevalence,Starting dose 50 mg,3/12
same,Leucopenia prevalence,Starting dose 50 mg,1/11
same,Neutropenia prevalence,Starting dose 50 mg,7/11
same,Toxicity-necessitated treatment termination prevalence,Starting dose 50 mg,2/12
same,Diarrhea OR univariate,Starting dose 37.5 vs <37.5 mg,0.4
same,Neutropenia OR univariate,Starting dose 37.5 vs <37.5 mg,3.2
same,Toxicity-necessitated treatment termination OR univariate,Starting dose 37.5 vs <37.5 mg,0.0
same,Diarrhea OR univariate,Starting dose 50 vs <37.5 mg,0.5
same,Neutropenia OR univariate,Starting dose 50 vs <37.5 mg,7.0
same,Toxicity-necessitated treatment termination OR univariate,Starting dose 50 vs <37.5 mg,0.1
same,Diarrhea prevalence,Starting dose <37.5 mg,2/5
same,Leucopenia prevalence,Starting dose <37.5 mg,0/4
same,Neutropenia prevalence,Starting dose <37.5 mg,1/5
same,Toxicity-necessitated treatment termination prevalence,Starting dose <37.5 mg,3/4
same,Leucopenia prevalence (cases affected/total in group),"all patients (n = 85), first cycle",11/85
same,"Toxicity-necessitated treatment termination before completing the first two cycles, prevalence",all patients (n = 87),13/87
same,Neutropenia prevalence (cases affected/total in group),"all patients (n = 88), first cycle",40/88
same,Diarrhea prevalence (cases affected/total in group),"all patients (n = 95), first cycle",20/95
same,Increase of the risk of leucopenia,"both, human, in vivo",8.0 fold
same,Increase of the risk of neutropenia,"both, human, in vivo",2.7 fold
same,Leucopenia prevalence,"both, human, in vivo",8/41
same,Severe to life-threatening toxicities,"early use, initiated at 50 mg daily",frequently noted
same,Neutropenia prevalence,"human, in vivo",23/41
